{"source": "patent US7125872B2", "about": "“β-sheet mimetics and use thereof as inhibitors of biologically active peptides or proteins” (Myriad Genetics, Inc., priority 1995, dated 2006)", "key": {"bovine trypsin": {"molecular_target": "T1, bovine trypsin (Bos taurus, UniProt P00760)", "T1 construct": "purchased Sigma", "T1 sequence (P00760 24-246)": "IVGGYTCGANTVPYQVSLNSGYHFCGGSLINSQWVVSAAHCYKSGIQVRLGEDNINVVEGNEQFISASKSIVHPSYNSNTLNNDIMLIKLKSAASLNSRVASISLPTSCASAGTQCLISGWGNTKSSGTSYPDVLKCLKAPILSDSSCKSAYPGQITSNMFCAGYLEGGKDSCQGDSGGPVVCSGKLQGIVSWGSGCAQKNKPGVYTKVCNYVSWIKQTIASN", "experiment": "trypsin inhibition assay, IC50 (Example 4)", "format": "biochemical", "method": "All inhibition assays of this experiment were performed at room temperature in 96 well microplates using a Bio-Rad microplate reader (Model 3550). […] This solution (2.05 mM) served as the stock solution for all the inhibition assays. The hydrolysis of chromogenic substrates was monitored at 405 nm. The reaction progress curves were recorded by reading the plates typically 90 times with 30 seconds to 2 minute intervals. The initial rate were determined by unweighted nonlinear least-squares fitting to a first order reaction in GraFit. The determined initial velocities were then nonlinear least-square fitted against the concentrations of structure.\nIn the trypsin assay, pH 7.8 Tris (0.10 M Tris and 0.02 M CaCl2) was utilized as the buffer. BAPNA (from Sigma) was used at 1 mg/ml in 1% DMSO (v/v) deionized water solution as substrate. The same dilutions of structure (13b) were made as for Factor VII assay."}, "[1]": {"experiment": "pharmacodynamic and pharmacokinetic study in rats", "format": "in vivo, male Sprague Dawley rats", "method": "Specifically, a pharmacodynamic and pharmacokinetic study of structure (20b) was conducted in male Sprague Dawley rats. […] Groups of rats (n=3 or 4) were sacrificed and exsanguinated at 0.25, 0.5, 1, 2, 4 and 8 hours following dosing. Efficacy parameters, aPTT and TT, were measured for each plasma sample."}, "factor X": {"molecular_target": "factor X (Bos taurus, UniProt P00743)", "sequence (P00743 234-492 limits assumed)": "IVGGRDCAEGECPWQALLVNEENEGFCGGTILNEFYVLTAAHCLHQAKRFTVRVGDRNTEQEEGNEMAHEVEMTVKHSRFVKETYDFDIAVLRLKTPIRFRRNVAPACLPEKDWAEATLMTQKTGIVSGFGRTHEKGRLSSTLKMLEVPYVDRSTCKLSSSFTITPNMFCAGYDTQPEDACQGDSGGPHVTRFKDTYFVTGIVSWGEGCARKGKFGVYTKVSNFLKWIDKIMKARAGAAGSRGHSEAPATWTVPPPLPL", "sequence (P00743 41-180 limits assumed)": "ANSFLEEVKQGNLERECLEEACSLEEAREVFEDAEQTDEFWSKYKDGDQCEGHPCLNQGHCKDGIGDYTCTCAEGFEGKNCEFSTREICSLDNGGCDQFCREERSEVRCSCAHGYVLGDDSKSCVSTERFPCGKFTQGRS", "experiment": "Factor X inhibition assay, Ki, bovine plasma enzyme", "format": "biochemical", "settings": "bovine plasma (footnote e)", "method": "All inhibition assays were performed at room temperature in 96 well microplates using Bio-Rad microplate reader (Model 3550). […] The hydrolysis of chromogenic subsstrates was monitored at 405 nm. The reaction progress curves were recorded by reading the plates, typically 60 times with 30 second to 2 minute intervals. Initial rates were determined by unweighted nonlinear least-squares fitting to a first order reaction in GraFit (Erithacus Software Limited, London, England).\nFactor X: Buffer and substrate were the same as used for thrombin assay. A 1:100 dilution was made in the pH8.0 tris buffer to serve as the first point. Seven more dilutions from the first were made for the assay."}, "factor VII": {"molecular_target": "factor VII (Homo sapiens, UniProt P08709)", "sequence (P08709 213-466 limits assumed)": "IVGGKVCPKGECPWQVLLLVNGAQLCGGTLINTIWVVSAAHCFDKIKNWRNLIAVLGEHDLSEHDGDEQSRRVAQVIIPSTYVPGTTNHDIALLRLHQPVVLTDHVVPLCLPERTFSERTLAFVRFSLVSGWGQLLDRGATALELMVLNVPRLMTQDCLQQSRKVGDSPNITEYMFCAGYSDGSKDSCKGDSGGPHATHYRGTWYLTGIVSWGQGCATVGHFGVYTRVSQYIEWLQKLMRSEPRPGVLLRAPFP", "sequence (P08709 61-212 limits assumed)": "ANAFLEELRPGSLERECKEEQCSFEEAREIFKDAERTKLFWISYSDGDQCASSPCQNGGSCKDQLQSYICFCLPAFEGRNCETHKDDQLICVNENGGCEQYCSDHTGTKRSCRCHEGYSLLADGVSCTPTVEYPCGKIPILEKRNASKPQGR", "sequence (P13726 33-295 partner)": "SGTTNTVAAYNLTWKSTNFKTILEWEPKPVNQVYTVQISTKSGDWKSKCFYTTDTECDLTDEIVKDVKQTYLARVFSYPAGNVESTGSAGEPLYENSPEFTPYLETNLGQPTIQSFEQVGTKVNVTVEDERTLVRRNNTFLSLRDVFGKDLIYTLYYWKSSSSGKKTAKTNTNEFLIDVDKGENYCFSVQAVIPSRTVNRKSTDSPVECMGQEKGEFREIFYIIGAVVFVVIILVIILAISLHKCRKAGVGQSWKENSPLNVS", "experiment": "Factor VII inhibition assay, Ki (Example 5)", "format": "biochemical", "method": "(§1) The reaction progress curves were recorded by reading the plates, typically 60 times with 30 second to 2 minute intervals. Initial rates were determined by unweighted nonlinear least-squares fitting to a first order reaction in GraFit (Erithacus Software Limited, London, England).\nFrom this concentration point seven more sequential dilutions were made for the assay."}, "tryptase": {"molecular_target": "T2, tryptase", "T2 construct": "rows headed: Ki tryptase; Ki Tryptase; tryptase; human lung; 2 (nM assay conc.)", "experiment": "tryptase inhibition assay, Ki", "format": "biochemical, human", "method": "as §1\nTryptase: 0.1 M tris, 0.2 M NaCl, 0.1 mg/ml heparin, pH=8.0 was utilized as buffer. […] From this point seven more dilutions were made for the assay."}, "[2]": {"molecular_target": "T3, Thrombin thrombomodulin complex (Bos taurus, UniProt P00735)", "T3 construct": "thrombin was preincubated with 4 n thrombomodulin for 20 minutes at room temperature", "experiment": "thrombin-thrombomodulin complex inhibition assay, Ki", "format": "biochemical", "settings": "read-out: Ki T.T.C. (Thrombin thrombomodulin complex)", "experimental": "Seven sequential dilutions were made from the first point for the assay.\nThe assay for thrombin-thromomodulin complex was conducted as for thrombin except that prior to the addition of inhibitor and substrate, thrombin was preincubated with 4 n thrombomodulin for 20 minutes at room temperature."}}, "data": [{"smiles": "N=C(N)NCCC[C@H](NC(=O)[C@@H]1CCN2CC[C@@](N)(Cc3ccccc3)C(=O)N12)C(=O)CCl", "note": "[Structure (13b)]", "values": [{"measurement": "IC50", "setting": "bovine trypsin", "result": "16 ± 8", "unit": "nM"}]}, {"smiles": "N=C(N)NCCC[C@H](NC(=O)[C@@H]1CCN2CC[C@@](N)(Cc3ccccc3)C(=O)N12)C(=O)c1nc2ccccc2s1", "note": "[Structure (20b)]", "values": [{"measurement": "efficacy parameters aPTT and TT", "setting": "[1]; rat plasma, 4 mg/kg IV and 10 mg/kg PO, FIGS. 4A and 4B", "result": "in viva efficacy"}, {"measurement": "bioavailability of orally administered compound", "setting": "[1]; rat, 10 mg/kg PO vs 4 mg/kg IV", "result": "approximately 27%"}]}, {"smiles": "N=C(N)NCCC[C@H](NC(=O)[C@@H]1CC[C@@H]2CC[C@](N)(Cc3ccccc3)C(=O)N21)C(=O)c1nc2ccccc2s1", "note": "[Structure (29a)]", "values": [{"measurement": "Ki", "setting": "factor X", "result": 4650, "unit": "nM"}, {"measurement": "Ki", "setting": "factor VII", "result": 1770, "unit": "nM"}]}, {"smiles": "N=C(N)NCCC[C@H](NC(=O)[C@@H]1CC[C@@H]2CC[C@@](N)(Cc3ccccc3)C(=O)N21)C(=O)c1nc2ccccc2s1", "note": "[Structure (29b)]", "values": [{"measurement": "Ki", "setting": "tryptase", "result": 9, "unit": "nM"}, {"measurement": "Ki", "setting": "[2]", "result": 0.088, "unit": "nM"}]}]}
